Laboratory results published in patent US20240148757A1, “USE OF DIHYDROOROTATE DEHYDROGENASE (DHODH) INHIBITORS TO TARGET FERROPTOSIS IN CANCER THERAPY” (BOARD OF REGENTS, THE UNIVERSITY OF TEXAS SYSTEM, priority 2021, published 2024).

Assays:
HT-1080 xenograft tumors = test: HT-1080 cell line-derived xenograft model; format: in vivo, athymic nude mice
Description: (§1) Fresh tumor tissues were fixed in 10% neutral buffered formalin overnight, washed once with PBS, and stored in 70% ethanol at 4° C. The tissues were dehydrated and embedded in paraffin by the Research Histology Core Laboratory (MD Anderson Cancer Center) according to standard protocols. Embedded tissues were sectioned at a thickness of 5 μm for H&E or immunohistochemistry (IHC) analysis. IHC analysis was performed as previously described (Gan, B., et al., Cancer Cell 18, 472-484 (2010); Gan, B., et al., J Cell Biol 175, 121-133 (2006)). Briefly, the primary antibodies, including ki-67 (1:500, 9027s, Cell Signaling Technology), cleaved-caspase 3 (1:500, 9661s, Cell Signaling Technology), or 4-HNE (1:400, ab46545, Abcam) were incubated overnight at 4° C. Staining was performed using the Vectastain elite ABC kit and DAB peroxidase substrate kit (Vector laboratories). Images were randomly taken from the […] (five images per tumor) at ×200 magnification using an Olympus BX43 microscope. All the xenograft experiments were performed in accordance with a protocol approved by the Institutional Animal Care and Use Committee and Institutional Review Board at The University of Texas MD Anderson Cancer Center. The study is compliant with all relevant ethical regulations regarding animal research. Female 4- to 6-week-old athymic nude mice (Foxn1^nu/Foxn1^nu) were purchased from the Experimental Radiation Oncology Breeding Core Facility at MD Anderson Cancer Center and housed in the Animal Care Facility at the Department of Veterinary Medicine and Surgery at MD Anderson. Cancer cell lines were suspended and counted in cold phosphate-buffered saline (PBS), and 5×10^6 HT-1080 or 1×10^7 NCI-H226 cells were injected into mice subcutaneously. When the tumor reached 50-100 mm^3, the mice were assigned randomly into different treatment groups. Brequinar or sulfasalazine was dissolved in dimethyl sulfoxide (DMSO) and diluted in PBS. Brequinar was intraperitoneally injected into mice at a dose of 30 mg/kg every three days. Sulfasalazine was intraperitoneally injected daily at a dose of 100 mg/kg. Liproxstatin-1 diluted in PBS was intraperitoneally injected daily at a dose of 10 mg/kg. The daily injection of brequinar, sulfasalazine, or liproxstatin-1 was continued until the endpoint as indicated in the corresponding figures. The tumor volume was measured every 3 days until the endpoint and calculated according to the equation volume=length×width^2×½.

solid tumors = details: oncology clinical trials; cited from earlier work
DHODH = DHODH (Homo sapiens, UniProt Q02127); details: cited from earlier work
DHODH, sequence (Q02127 whole entry, species assumed): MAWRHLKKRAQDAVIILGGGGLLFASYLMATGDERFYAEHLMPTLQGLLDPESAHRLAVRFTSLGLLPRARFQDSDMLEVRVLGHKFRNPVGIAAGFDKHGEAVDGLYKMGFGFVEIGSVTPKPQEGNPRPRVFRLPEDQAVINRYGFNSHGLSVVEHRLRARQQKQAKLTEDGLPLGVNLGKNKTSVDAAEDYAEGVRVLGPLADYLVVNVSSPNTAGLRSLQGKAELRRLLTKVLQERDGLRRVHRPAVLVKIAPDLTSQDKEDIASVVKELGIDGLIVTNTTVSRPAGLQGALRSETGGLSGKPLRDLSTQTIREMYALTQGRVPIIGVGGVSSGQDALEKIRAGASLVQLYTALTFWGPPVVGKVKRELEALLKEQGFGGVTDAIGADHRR

GPX4^high HT-1080 cells = test: Cell viability / cell death (ferroptosis) in HT-1080 cells; format: cell-based, human; details: wild-type (WT) cells, BQR 500 μM, 4 hours
Description: Briefly, cells were seeded onto 96-well plates at a density of 2×10^4 per well. The next day, cells were treated with GPX4 or DHODH inhibitors for 4 hours. Subsequently, cells exposed to 10 μl CCK-8 reagent (100 μl medium per well) for 1 hour at 37° C., 5% CO2 in an incubator. The absorbance at a wavelength of 450 nm was determined using a FLUOstar Omega microplate reader (BMG Labtech).
For propidium iodide-staining, cells were seeded at a density of 50% confluence into 12-well plates. The next day, cells were treated with different reagents. To measure cell death, the cells were collected (including floating dead cells), stained with 5 μg/ml propidium iodide and the percentage of the propidium iodide-positive dead cell population was analyzed using the flow cytometer BD Accuri C6 (BD Biosciences) and an FL2 detector. A minimum of 10,000 single cells were analyzed per well and all experiments were carried out at least in triplicate.

GPX4-knockdown tumors = test: GPX4-knockdown HT-1080 xenograft model; format: in vivo, athymic nude mice
Description: as §1

[1] = system: GPX4^low NCI-H226 xenografts; test: NCI-H226 xenograft model; format: in vivo, athymic nude mice; details: brequinar 30 mg/kg intraperitoneally every three days
Description: All the xenograft experiments were performed in accordance with a protocol approved by the Institutional Animal Care and Use Committee and Institutional Review Board at The University of Texas MD Anderson Cancer Center. The study is compliant with all relevant ethical regulations regarding animal research. Female 4- to 6-week-old athymic nude mice (Foxn1^nu/Foxn1^nu) were purchased from the Experimental Radiation Oncology Breeding Core Facility at MD Anderson Cancer Center and housed in the Animal Care Facility at the Department of Veterinary Medicine and Surgery at MD Anderson. Cancer cell lines were suspended and counted in cold phosphate-buffered saline (PBS), and 5×10^6 HT-1080 or 1×10^7 NCI-H226 cells were injected into mice subcutaneously. When the tumor reached 50-100 mm^3, the mice were assigned randomly into different treatment groups. Brequinar or sulfasalazine was dissolved in dimethyl sulfoxide (DMSO) and diluted in PBS. Brequinar was intraperitoneally injected into mice at a dose of 30 mg/kg every three days. Sulfasalazine was intraperitoneally injected daily at a dose of 100 mg/kg. Liproxstatin-1 diluted in PBS was intraperitoneally injected daily at a dose of 10 mg/kg. […] The tumor volume was measured every 3 days until the endpoint and calculated according to the equation volume=length×width^2×½.

[2] = system: GPX4^low patient-derived xenografts (PDXs); test: GPX4^low patient-derived xenograft model; format: in vivo, NSG mice; details: brequinar 30 mg/kg intraperitoneally every three days
Excerpt: PDXs were generated in accordance with protocols approved by the Institutional Review Board at The University of Texas MD Anderson Cancer Center. Informed consent was obtained from the patients and the study is compliant with all relevant ethical regulations regarding research involving human participants. All the NOD scid gamma (NSG) mice were purchased from the Experimental Radiation Oncology Breeding Core Facility at MD Anderson Cancer Center and housed in the Animal Care Facility at the Department of Veterinary Medicine and Surgery at MD Anderson Cancer Center. PDX model used in this study was originally obtained from lung cancer PDX platform at MD Anderson Cancer Center. PDX experiments were performed as previously described (Liu, X., et al., Nat Cell Biol 22, 476-486 (2020)). Briefly, PDX tumors in cold DMEM media were minced into fragments 1-2 mm^3 in volume. Then each PDX tumor fragment was subcutaneously inoculated into the dorsal flank of NSG mice. When the tumors reached 50-100 mm 3 in volume, the mice were assigned randomly into different treatment groups for the treatment of brequinar, sulfasalazine, and/or liproxstatin-1 as described under cell line-derived xenograft model. The tumor volume was measured every 3 days until the endpoint and calculated according to the equation volume=length×width^2×½.

[3] = brequinar 30 mg/kg intraperitoneally every three days

SMILES: Cc1c(-c2ccc(-c3ccccc3F)cc2)nc2ccc(F)cc2c1C(=O)O [brequinar]
- tumor growth (HT-1080 xenograft tumors; [3]): did not affect the growth
- 4-HNE staining (lipid peroxidation marker) (HT-1080 xenograft tumors; control tumors): but not in control tumors
- cleaved caspase-3 or Ki67 staining (HT-1080 xenograft tumors; control xenograft samples): did not affect
- efficacy against solid tumors (solid tumors): lacks broad efficacy against solid tumors
- tolerability in patients (solid tumors): well-tolerated
- DHODH inhibitor potency and specificity (DHODH): potent and specific
- effect on RSL3-induced ferroptosis (GPX4^high HT-1080 cells): promotes RSL3-induced ferroptosis
- 4-HNE staining (lipid peroxidation marker) (GPX4-knockdown tumors; GPX4-knockdown tumors): dramatically increased
- cleaved caspase-3 or Ki67 staining (GPX4-knockdown tumors; GPX4-knockdown xenograft samples): did not affect
- tumor growth (sensitivity to DHODH inhibition) (GPX4-knockdown tumors; [3]): significantly sensitized
- tumor growth [1]: significantly suppressed
- tumor growth [2]: significantly suppressed
